Molecules are shown by their SMILES.

Experimental findings from patent US20200199528A1, “CELL CULTURE MEDIA FOR DIFFERENTIATION OF STEM CELLS INTO HEPATOCYTES” (KATHOLIEKE UNIVERSITEIT LEUVEN, priority 2017, published 2020) are described below.

The subject of one data set is HepG2 cells. As to the method:
PSC, HC3X and HC6X cells were differentiated in a 384 well format. Cells were treated with 14 different concentrations of compounds in 6 repeats. As a negative control 41 wells were left untreated. After 24 h of exposure media was aspirated and fresh media was added to the cells supplemented with […] of DRAQ 7 (Abcam; ab109202) and Hoechst dye (1/1000, Sigma, 33258) for 25 min at 37°. Cells were fixed with 4% paraformaldehyde. Imaging was done using an Operetta High-Content Imaging System (Perkin Elmer) and image analysis was performed using Harmony software (Perkin Elmer). Relative cell number was calculated as the percentage of living cells (draq7 positive amount subtracted from the Hoechst positive amount) relative to the average of living cells in the control wells. As a positive control, 2 donors of PHHs were seeded at 10 000 cells per well. Drugs were administrated after 8 hours of attachment. HepG2 cells were seeded at 40 000 cells per well. For control conditions HepG2 cells were exposed after 2 days of culture.

Protocol for HC6X cells: We cultured HC6X cells (both in an H9 background and in an) BJ1-iPSc background in 384 well format in AAGLY-supplemented medium.
PSC, HC3X and HC6X cells were differentiated in a 384 well format. Cells were treated with 14 different concentrations of compounds in 6 repeats. As a negative control 41 wells were left untreated. After 24 h of exposure media was aspirated and fresh media was added to the cells supplemented with 0.3 mM of DRAQ 7 (Abcam; ab109202) and Hoechst dye (1/1000, Sigma, 33258) for 25 min at 37°. Cells were fixed with 4% paraformaldehyde. Imaging was done using an Operetta High-Content Imaging System (Perkin Elmer) and image analysis was performed using Harmony software (Perkin Elmer). Relative cell number was calculated as the percentage of living cells (draq7 positive amount subtracted from the Hoechst positive amount) relative to the average of living cells in the control wells. As a positive control, 2 donors of PHHs were seeded at 10 000 cells per well. Drugs were administrated after 8 hours of attachment. HepG2 cells were seeded at 40 000 cells per well. For control conditions HepG2 cells were exposed after 2 days of culture. For AAGLY conditions HepG2 cells were maintained in the supplemented medium for 30 days before exposure.

Consider `CC(=O)Nc1ccc(O)cc1` [APAP, acetaminophen], for which the Toxicity result in the data set with HepG2 cells is listed as “not able to pick up toxicity”; in the data set with HC6X cells, “no toxicity”.
